Assay results taken from patent US6376497B1, “Antifungal azole derivatives having a fluorinated vinyl group and process for preparing same” (Korea Research Institute of Chemical Technology, priority 1999, dated 2002).

Columns and labels:
Test in all cases: In vitro antifungal activity, microbroth dilution MIC
Type in all cases: cell-based
[1] = test system: Aspergillus furnigatus B. 19119; conditions: 4 to 48 hours; for Minimal inhibitory concentration (MIC): A furnigatus B. 19119, RPMI-1640, 35° C.; for Minimal inhibitory concentration(MIC), A furnigatus B. 19119: RPMI-1640, 35° C., no growth observed
Protocol: (§1) In vitro antifungal activities of the inventive antifungal compounds were evaluated using the test strains shown in Table VIII by the following microbroth dilution method which is a modified version of the procedure recommended by National Committee for Clinical Laboratory Standards(see National Committee for Clinical Laboratory Standards, 1992, Reference methods for broth dilution antifungal susceptibility testing of yeasts, Proposed standard M27-P, National Committee for clinical laboratory standards, Villanova, Pa; and National Committee for Clinical Laboratory Standards, 1995, Reference methods for broth dilution antifungal susceptibility testing of yeasts. Tentative standard M27-T, National Committee for clinical laboratory standards, Villanova, Pa).
(§2) Sabourad Dextrose Agar(Difco) was used as a culture medium, and RPMI-1640 broth(Sigma. Co. w/L-glutamine, wo/NaHCO3)(0.165 M MOPS, pH 7.0), as a dilution medium.
(§3) Each of the test strains were subcultured in Sabourad Dextrose Agar medium twice and a stain sample was taken from prominent colonies and suspended in sterile physiological saline solution in a cap tube. The turbidity of the suspension was adjusted to that of the Mcfarland 0.5 standard sample(approximately 10^6 CFU/ml). Then the suspension was diluted 500-fold with sterile RPMI-1640 liquid medium to 2×10^3 CFU/ml.
(§4) Each of the test compounds(the compounds obtained in Examples 1 to 150 and comparative compounds, i.e., fluconazole(FCZ) and itraconazole (ICZ)), was dissolved in DMSO to give a stock solution having a concentration of 4000 μg/ml and the stock solution was successively diluted to obtain test solutions having test compound concentrations of 200, 100, 50, 25, 12.5, 6.25, 3.13, 1.56, 0.78, 0.39, 0.20 and 0.10 μg/ml, respectively.
(§5) 0.1 ml portion of the test solutions were added to the wells of a sterile 96 well plate. Then, 0.1 ml portion of each of the test strain solutions were added successively to the wells and the plate was incubated at 35° C. for 4 to 48 hours.
(§6) Minimal inhibitory concentration(MIC) of each compound was defined as the concentration of the test compound where no growth of the strain could be observed.

[2] = test system: Aspergillus niger A. 16404; conditions: 4 to 48 hours; for Minimal inhibitory concentration (MIC): A. niger A. 16404, RPMI-1640, 35° C.; for Minimal inhibitory concentration(MIC), A. niger A. 16404: RPMI-1640, 35° C., no growth observed
Protocol: as §1, §2, §3, §4, §5, §6

[3] = test system: Candida albicans A. 10231; conditions: 4 to 48 hours; for Minimal inhibitory concentration (MIC): C. albicans A. 10231, RPMI-1640, 35° C.
Protocol: as §1, §2, §3, §4, §5, §6

[4] = test system: Candida albicans C1-2; conditions: 4 to 48 hours; for Minimal inhibitory concentration (MIC): C. albicans C1-2, RPMI-1640, 35° C.; for Minimal inhibitory concentration(MIC), C. albicans C1-2: RPMI-1640, 35° C., no growth observed
Protocol: as §1, §2, §3, §4, §5, §6

[5] = test system: Candida albicans IFO. 1385; conditions: 4 to 48 hours; for Minimal inhibitory concentration (MIC): C. albicans IFO. 1385, RPMI-1640, 35° C.; for Minimal inhibitory concentration(MIC), C. albicans IFO. 1385: RPMI-1640, 35° C., no growth observed
Protocol: as §1, §2, §3, §4, §5, §6

[6] = test system: Candida krusei K. 11655; conditions: 4 to 48 hours; for Minimal inhibitory concentration (MIC): C. krusei K. 11655, RPMI-1640, 35° C.; for Minimal inhibitory concentration(MIC), C. krusei K. 11655: RPMI-1640, 35° C., no growth observed
Protocol: as §1, §2, §3, §4, §5, §6

[7] = test system: Candida parapsitosis A. 7330; conditions: 4 to 48 hours; for Minimal inhibitory concentration (MIC): C. parapsitosis A. 7330, RPMI-1640, 35° C.; for Minimal inhibitory concentration(MIC), C. parapsitosis A. 7330: RPMI-1640, 35° C., no growth observed
Protocol: as §1, §2, §3, §4, §5, §6

[8] = test system: Candida pseudotropicalis K. 11658; conditions: 4 to 48 hours; for Minimal inhibitory concentration (MIC): C. pseudotropicalis K. 11658, RPMI-1640, 35° C.; for Minimal inhibitory concentration(MIC), C. pseudotropicalis K. 11658: RPMI-1640, 35° C., no growth observed
Protocol: as §1, §2, §3, §4, §5, §6

[9] = test system: Candida tropicalis A. 13803; conditions: 4 to 48 hours; for Minimal inhibitory concentration (MIC): C. tropicalis A. 13803, RPMI-1640, 35° C.; for Minimal inhibitory concentration(MIC), C. tropicalis A. 13803: RPMI-1640, 35° C., no growth observed
Protocol: as §1, §2, §3, §4, §5, §6

[10] = test system: Cryptococcus neoformans A. 34144; conditions: 4 to 48 hours; for Minimal inhibitory concentration (MIC): Cry. neoformans A. 34144, RPMI-1640, 35° C.; for Minimal inhibitory concentration(MIC), Cry. neoformans A. 34144: RPMI-1640, 35° C., no growth observed
Protocol: as §1, §2, §3, §4, §5, §6

[11] = test system: Cryptococcus neoformans B. 42419; conditions: 4 to 48 hours; for Minimal inhibitory concentration (MIC): Cry. neoformans B. 42419, RPMI-1640, 35° C.; for Minimal inhibitory concentration(MIC), Cry. neoformans B. 42419: RPMI-1640, 35° C., no growth observed
Protocol: as §1, §2, §3, §4, §5, §6

[12] = test system: Cryptococcus neoformans IFM. 40092; conditions: 4 to 48 hours; for Minimal inhibitory concentration (MIC): Cry. neoformans IFM. 40092, RPMI-1640, 35° C.
Protocol: as §1, §2, §3, §4, §5, §6

[13] = test system: Torulopsis glabrata B. 16205; conditions: 4 to 48 hours; for Minimal inhibitory concentration (MIC): T. glabrata B. 16205, RPMI-1640, 35° C.; for Minimal inhibitory concentration(MIC), T. glabrata B. 16205: RPMI-1640, 35° C., no growth observed
Protocol: as §1, §2, §3, §4, §5, §6

[14] = test system: Trichophyton mentagrophytes A. 9129; conditions: 4 to 48 hours; for Minimal inhibitory concentration (MIC): T. mentagrophytes A. 9129, RPMI-1640, 35° C.; for Minimal inhibitory concentration(MIC), T. mentagrophytes A. 9129: RPMI-1640, 35° C., no growth observed
Protocol: as §1, §2, §3, §4, §5, §6

[15] = test system: Trichophyton mentagrophytes B. 32663; conditions: 4 to 48 hours; for Minimal inhibitory concentration (MIC): T. mentagrophytes B. 32663, RPMI-1640, 35° C.; for Minimal inhibitory concentration(MIC), T. mentagrophytes B. 32663: RPMI-1640, 35° C., no growth observed
Protocol: as §1, §2, §3, §4, §5, §6

[16] = RPMI-1640, 35° C., no growth observed

Minimal inhibitory concentration (MIC) [1] [µg/mL]	Minimal inhibitory concentration (MIC) [2] [µg/mL]	Minimal inhibitory concentration (MIC) [3] [µg/mL]	Minimal inhibitory concentration (MIC) [4] [µg/mL]	Minimal inhibitory concentration (MIC) [5]	Minimal inhibitory concentration (MIC) [6] [µg/mL]	Minimal inhibitory concentration (MIC) [7] [µg/mL]	Minimal inhibitory concentration (MIC) [8] [µg/mL]	Minimal inhibitory concentration (MIC) [9] [µg/mL]	Minimal inhibitory concentration (MIC) [10] [µg/mL]	Minimal inhibitory concentration (MIC) [11] [µg/mL]	Minimal inhibitory concentration (MIC) [12]	Minimal inhibitory concentration (MIC) [13] [µg/mL]	Minimal inhibitory concentration (MIC) [14] [µg/mL]	Minimal inhibitory concentration (MIC) [15] [µg/mL]	Compound	other results
50.0	100	6.25	6.25	0.78 µg/mL	>100	>100	100	25.0	0.78	1.56	0.39 µg/mL	12.5	12.5	6.25	FC(OCC1COC(Cn2ccnc2)(c2ccc(Cl)cc2Cl)O1)=C(c1cccc(F)c1)C(F)(F)F (mixture of isomers) [Ex. 32]	–
100	100	6.25	12.5	1.56 µg/mL	100	>100	100	50.0	1.56	1.56	0.78 µg/mL	25.0	25.0	12.5	FC(OCC1COC(Cn2ccnc2)(c2ccc(Cl)cc2Cl)O1)=C(c1ccc(F)cc1)C(F)(F)F (mixture of isomers) [Ex. 33]	–
3.13	6.25	6.25	6.25	0.39 µg/mL	25.0	12.5	12.5	12.5	1.56	1.56	0.39 µg/mL	6.25	1.56	0.78	FC(OCC1COC(Cn2ccnc2)(c2ccc(Cl)cc2Cl)O1)=C(c1cc(Cl)cc(Cl)c1)C(F)(F)F (mixture of isomers) [Ex. 34]	–
100	100	25.0	25.0	1.56 µg/mL	>100	>100	>100	100	1.56	1.56	0.78 µg/mL	25.0	25.0	6.25	FC(OCC1COC(Cn2ccnc2)(c2ccc(Cl)cc2Cl)O1)=C(c1cccs1)C(F)(F)F (mixture of isomers) [Ex. 35]	–
1.56	12.5	50.0	50.0	0.78 µg/mL	50.0	25.0	25.0	100	6.25	3.13	0.78 µg/mL	25.0	1.56	0.39	FC(=Cc1ccccc1)OCC1COC(Cn2ccnc2)(c2ccc(F)cc2F)O1 (mixture of isomers) [Ex. 36]	–
1.56	12.5	–	25.0	≦0.10 μg/ml	25.0	25.0	12.5	50.0	0.78	0.78	≦0.10 μg/ml	12.5	0.39	0.20	FC(=Cc1ccc2c(c1)OCO2)OCC1COC(Cn2ccnc2)(c2ccc(F)cc2F)O1 (mixture of isomers) [Ex. 46]	–
–	–	–	–	–	–	–	–	–	–	–	–	–	–	–	CCc1ccc(C(=C(F)Oc2ccc(OCC3COC(Cn4ccnc4)(c4ccc(Cl)cc4Cl)O3)cc2)C(F)(F)F)cc1 (mixture of isomers) [Ex. 95]	Minimal inhibitory concentration(MIC), A furnigatus B. 19119 [1]: >100 µg/mL; Minimal inhibitory concentration(MIC), A. niger A. 16404 [2]: >100 µg/mL; Minimal inhibitory concentration(MIC), C. albicans A. 10231 [3, 16]: >100 µg/mL; Minimal inhibitory concentration(MIC), C. albicans C1-2 [4]: >100 µg/mL; Minimal inhibitory concentration(MIC), C. albicans IFO. 1385 [5]: 6.25 µg/mL; Minimal inhibitory concentration(MIC), C. krusei K. 11655 [6]: >100 µg/mL; Minimal inhibitory concentration(MIC), C. parapsitosis A. 7330 [7]: >100 µg/mL; Minimal inhibitory concentration(MIC), C. pseudotropicalis K. 11658 [8]: >100 µg/mL; Minimal inhibitory concentration(MIC), C. tropicalis A. 13803 [9]: >100 µg/mL; Minimal inhibitory concentration(MIC), Cry. neoformans A. 34144 [10]: 3.13 µg/mL; Minimal inhibitory concentration(MIC), Cry. neoformans B. 42419 [11]: 6.25 µg/mL; Minimal inhibitory concentration(MIC), T. glabrata B. 16205 [13]: >100 µg/mL; Minimal inhibitory concentration(MIC), T. mentagrophytes A. 9129 [14]: 50.0 µg/mL; Minimal inhibitory concentration(MIC), T. mentagrophytes B. 32663 [15]: 50.0 µg/mL
–	–	–	–	–	–	–	–	–	–	–	–	–	–	–	Cc1ccc(C(=C(F)N2CCN(c3ccc(OCC4COC(Cn5ccnc5)(c5ccc(Cl)cc5Cl)O4)cc3)CC2)C(F)(F)F)cc1 (mixture of isomers) [Ex. 126]	Minimal inhibitory concentration(MIC), A furnigatus B. 19119 [1]: >100 µg/mL; Minimal inhibitory concentration(MIC), A. niger A. 16404 [2]: >100 µg/mL; Minimal inhibitory concentration(MIC), C. albicans C1-2 [4]: >100 µg/mL; Minimal inhibitory concentration(MIC), C. albicans IFO. 1385 [5]: 1.56 µg/mL; Minimal inhibitory concentration(MIC), C. krusei K. 11655 [6]: 3.13 µg/mL; Minimal inhibitory concentration(MIC), C. parapsitosis A. 7330 [7]: 3.13 µg/mL; Minimal inhibitory concentration(MIC), C. pseudotropicalis K. 11658 [8]: 1.56 µg/mL; Minimal inhibitory concentration(MIC), C. tropicalis A. 13803 [9]: >100 µg/mL; Minimal inhibitory concentration(MIC), Cry. neoformans A. 34144 [10]: 0.78 µg/mL; Minimal inhibitory concentration(MIC), Cry. neoformans B. 42419 [11]: 0.78 µg/mL; Minimal inhibitory concentration(MIC), Cry. neoformans IFM. 40092 [12, 16]: ≦0.10 μg/ml; Minimal inhibitory concentration(MIC), T. glabrata B. 16205 [13]: >100 µg/mL; Minimal inhibitory concentration(MIC), T. mentagrophytes A. 9129 [14]: 12.5 µg/mL; Minimal inhibitory concentration(MIC), T. mentagrophytes B. 32663 [15]: 6.25 µg/mL
